Experimental data as given in patent publication US20090286883A1, “TREATMENT OF HEART FAILURE AND ASSOCIATED CONDITIONS BY ADMINISTRATION OF MONOAMINE OXIDASE INHIBITORS” (Universita' degli Studi di Padova (University of Padua), priority 2008, published 2009).
Several values for one entry are separate records, joined by “and”; a condition that tells them apart may be missing. Equal entries are not always repeated.

Experiments:
[1] = system: neonatal rat cardiomyocytes; assay: MAO-A and BNP gene expression after NE in absence or presence of clorgyline; assay type: cell-based
Text: This process may contribute to the development of […]

HL-1 cardiomyocytes = assay: Oxidative stress (mitochondrial ROS production) upon H2O2 or arachidonic acid; assay type: cell-based; settings: for Levels of oxidative stress, Arachidonic acid (% increase vs control): 5 μM arachidonic acid, no treatment 145.6 ± 3.8; for Levels of oxidative stress, Arachidonic acid (% increase vs control) / Levels of oxidative stress, H2O2 (% increase vs control): clorgyline 1 μM; for Levels of oxidative stress, H2O2 (% increase vs control): 100 μM H2O2, no treatment 156.2 ± 4.3; for rise in ROS production / protection: H2O2 or arachidonic acid stimulated HL-1 cardiomyocytes, cell pretreatment
Method: In vivo, mitochondria and the respiratory chain, in particular, are considered a major intracellular ROS source^15. MAOs are located in the outer membrane of these organelles and MAO-A can increase oxidative burden. When HL-1 cardiomyocytes were incubated with 100 μM H2O2 or 5 μM arachidonic acid, a rise in ROS production at mitochondrial level was observed (Table 6).

caspase-3 = assay: Cleaved caspase-3 levels after 6 weeks of TAC; assay type: in vivo; settings: 6 weeks TAC mice, FIG. 1
Text: Levels of cleaved caspase-3 were markedly elevated after 6 weeks in TAC mice vs shams.

cardiomyocytes = assay: NFAT4 gene expression upon stimulation with tyramine in absence or presence of clorgyline; assay type: cell-based
[2] = system: TAC-induced pressure overload; assay: Transverse aortic constriction (TAC) pressure overload in mice, cardiac morphology and in vivo ventricular function; settings: for EF (ejection fraction) / FS (fractional shortening) / Heart rate / IVS (interventricular septum) / LV mass/BW / LVEDD (left ventricular end-diastolic dimension) / LVESD (left ventricular end-systolic dimension) / LVPW (left ventricular posterior wall): clorgyline 1 mg/kg/day
myocytes = assay: EMT gene expression upon stimulation with tyramine; assay type: cell-based; settings: tyramine 10 μM

Q: Which “MAO-A gene expression and hypertrophy (BNP expression)” value ([1]; NE 10 μM for 24 hrs) does the source give for NC[C@H](O)c1ccc(O)c(O)c1 [NE, norepinephrine] here?
A: Its value is “up-regulation of MAO-A gene expression and induction of hypertrophy”.

Q: What about the “MAO-A (vs GAPDH) gene expression” value ([1]; NE 10 μM, 24 hrs, control 0.58 ± 0.05) of the same compound?
A: The value was 1.85 ± 0.04.

Q: And the “BNP (vs GAPDH) gene expression” value ([1]; NE 10 μM, 24 hrs, control 1 ± 0)?
A: Its value is 8.9 ± 1.4.

Q: What does the source list for C#CCN(C)CCCOc1ccc(Cl)cc1Cl [clorgyline]?
A: BNP (vs GAPDH) gene expression ([1]; NE 10 μM 24 hrs in presence of clorgyline, NE alone 8.9 ± 1.4): 4.85 ± 0.9 ^#; Levels of oxidative stress, Arachidonic acid (% increase vs control) (HL-1 cardiomyocytes): 98.3 ± 1.3 % increase vs control; Levels of oxidative stress, H2O2 (% increase vs control) (HL-1 cardiomyocytes): 122.6 ± 3 % increase vs control; rise in ROS production / protection (HL-1 cardiomyocytes): completely prevented, or reduced; caspase-3 activation (cleaved caspase-3) (caspase-3): prevented caspase-3 activation; NFAT4 gene expression (normalized to GAPDH) (cardiomyocytes; Control (no tyramine), +clorgyline): 0.23 ± 0.02; NFAT4 gene expression (normalized to GAPDH) (cardiomyocytes; Tyramine, +clorgyline (preincubation)): 0.32 ± 0.02; effect on tyramine-induced increase of NFAT4 expression (cardiomyocytes; preincubation with clorgyline prior to tyramine treatment): reduced this effect significantly; EF (ejection fraction) ([2]; TAC 3 weeks): 91.6 ± 0.4^C %; FS (fractional shortening) ([2]; TAC 3 weeks): 56.8 ± 1.9^C %; Heart rate ([2]; TAC 3 weeks): 702 ± 12 bpm; IVS (interventricular septum) ([2]; TAC 3 weeks): 1.3 ± 0.02^B mm; LV mass/BW ([2]; TAC 3 weeks): 6.4 ± 0.3^B mg/g; LVEDD (left ventricular end-diastolic dimension) ([2]; TAC 3 weeks): 2.9 ± 0.06 mm; LVESD (left ventricular end-systolic dimension) ([2]; TAC 3 weeks): 1.2 ± 0.06 mm; LVPW (left ventricular posterior wall) ([2]; TAC 3 weeks): 1.2 ± 0.03^B mm; Heart rate ([2]; TAC 6 weeks): 670 ± 13.7 bpm; IVS (interventricular septum) ([2]; TAC 6 weeks): 1.4 ± 0.03^B mm; LV mass/BW ([2]; TAC 6 weeks): 7.2 ± 0.4^B, D mg/g; LVEDD (left ventricular end-diastolic dimension) ([2]; TAC 6 weeks): 3.0 ± 0.08^D mm; LVESD (left ventricular end-systolic dimension) ([2]; TAC 6 weeks): 1.2 ± 0.04^D mm; LVPW (left ventricular posterior wall) ([2]; TAC 6 weeks): 1.3 ± 0.03^B, D mm; EF (ejection fraction) ([2]; TAC 6 weeks, listed as CLO): 93.6±0.4% and 94.3 ± 0.4^D %; FS (fractional shortening) ([2]; TAC 6 weeks, listed as CLO): 61±0.8% and 61.6 ± 0.9^D %; levels of hypertrophy (LV mass, LVEDD, LVESD) ([2]; TAC, vs saline-treated TAC mice): reduced; wall thickness ([2]; after 3 weeks of TAC, compared to sham operated animals): increased; LV function ([2]; after 3 weeks of TAC, vs saline-treated TAC mice): significantly better; LV function ([2]; at 6 weeks of TAC, vs saline-treated TAC mice): improved

Q: Which “Levels of oxidative stress, Arachidonic acid (% increase vs control)” value (HL-1 cardiomyocytes) does the source give for C#CCN(C)[C@H](C)Cc1ccccc1 [deprenyl] here?
A: The value was 142.4 ± 0.3 % increase vs control.

Q: What about the “Levels of oxidative stress, H2O2 (% increase vs control)” value (HL-1 cardiomyocytes) of the same compound?
A: Its value is 150.7 ± 4.9 % increase vs control.

Q: What about the “rise in ROS production / protection” value (HL-1 cardiomyocytes) of the same compound?
A: Its value is “No protection”.

Q: NCCc1ccc(O)cc1 [tyramine] was tested. Which “increase in EMT gene expression” value (myocytes) did it give?
A: The value was 2 fold.

Q: What about the EMT/GAPDH gene expression (myocytes; control 0.5 ± 0.04) of the same compound?
A: Its EMT/GAPDH gene expression is 0.97 ± 0.2.

Q: What about the “increase of NFAT4 expression” value (cardiomyocytes; tyramine incubation of cardiomyocytes) of the same compound?
A: Its value is 2 fold.

Q: What about the “NFAT4 gene expression (normalized to GAPDH)” value (cardiomyocytes; tyramine, −clorgyline, control 0.24 ± 0.03) of the same compound?
A: Its value is 0.38 ± 0.01.
